Assay results reported in PubChem BioAssay AID1963967 (Molecular Pharmacology Branch, DTP, NCI, 2024).
Values joined by “and” are separate entries in the source; they are usually repeats but may differ in a detail not shown here. Equal entries are not always repeated.

Test system: 855422-203-R-J1-PDC spheroids with HUVEC/MSC, viability
Experiment: Anticancer human tumor 855422-203-R-J1-PDC patient-derived bladder carcinoma cell line growth inhibition [PI3K]
Conditions: for viability, T/C: stronger effect = lower value
Method in brief: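 Tumor cells grown as multi-cell spheroids with HUVEC endothelial cells and MSC fibroblast-like stroma were treated with targeted agents combined with inavolisib, alpelisib, duvelisib or copanlisib. Doses fell in half-log steps from near clinical Cmax, else from 10 microM. Viability was measured.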

[1] = curve of first compound, second compound 0.00316 µM
[2] = curve of first compound, second compound 0.01 µM
[3] = curve of first compound, second compound 0.0316 µM
[4] = curve of first compound, second compound 0.1 µM
[5] = curve of first compound, second compound 0.316 µM
[6] = curve of first compound, second compound 1 µM
[7] = second compound 0.00316 µM, first compound 0.0316 µM
[8] = second compound 0.00316 µM, first compound 0.1 µM
[9] = second compound 0.00316 µM, first compound 0.316 µM
[10] = second compound 0.00316 µM, first compound 1 µM
[11] = second compound 0.00316 µM, first compound 3.16 µM
[12] = second compound 0.00316 µM, first compound 10 µM
[13] = second compound 0.01 µM, first compound 0.0316 µM
[14] = second compound 0.01 µM, first compound 0.1 µM
[15] = second compound 0.01 µM, first compound 0.316 µM
[16] = second compound 0.01 µM, first compound 1 µM
[17] = second compound 0.01 µM, first compound 3.16 µM
[18] = second compound 0.01 µM, first compound 10 µM
[19] = second compound 0.0316 µM, first compound 0.0316 µM
[20] = second compound 0.0316 µM, first compound 0.1 µM
[21] = second compound 0.0316 µM, first compound 0.316 µM
[22] = second compound 0.0316 µM, first compound 1 µM
[23] = second compound 0.0316 µM, first compound 3.16 µM
[24] = second compound 0.0316 µM, first compound 10 µM
[25] = second compound 0.1 µM, first compound 0.0316 µM
[26] = second compound 0.1 µM, first compound 0.1 µM
[27] = second compound 0.1 µM, first compound 0.316 µM
[28] = second compound 0.1 µM, first compound 1 µM
[29] = second compound 0.1 µM, first compound 3.16 µM
[30] = second compound 0.1 µM, first compound 10 µM
[31] = second compound 0.316 µM, first compound 0.0316 µM
[32] = second compound 0.316 µM, first compound 0.1 µM
[33] = second compound 0.316 µM, first compound 0.316 µM
[34] = second compound 0.316 µM, first compound 1 µM
[35] = second compound 0.316 µM, first compound 3.16 µM
[36] = second compound 0.316 µM, first compound 10 µM
[37] = second compound 1 µM, first compound 0.0316 µM
[38] = second compound 1 µM, first compound 0.1 µM
[39] = second compound 1 µM, first compound 0.316 µM
[40] = second compound 1 µM, first compound 1 µM
[41] = second compound 1 µM, first compound 3.16 µM
[42] = second compound 1 µM, first compound 10 µM
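Further: agents incubated with spheroids for one week before read-out.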
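Wherever viability, T/C is given: 100% = DMSO vehicle-treated control wells.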

`CNC(=O)c1ccc(N2C(=S)N(c3ccc(C#N)c(C(F)(F)F)c3)C(=O)C2(C)C)cc1F` + COc1c(OCCCN2CCOCC2)ccc2c3n(c(=NC(=O)c4cnc(N)nc4)nc12)CCN3 was tested. Which IC50 [1] did it give?
The IC50 was over 10 µM.

And the IC50 [2]?
Its IC50 is over 10 µM.

And the IC50 [3]?
The IC50 was over 10 µM.

What about the IC50 [4] of the same compound?
The IC50 was under 0.0316 µM.

What about the IC50 [5] of the same compound?
The IC50 was under 0.0316 µM.

What about the IC50 [6] of the same compound?
Its IC50 is under 0.0316 µM.

And the viability, T/C [7]?
Its viability, T/C is 94.3%.

What about the viability, T/C [8] of the same compound?
The viability, T/C was 79.5%.

And the viability, T/C [9]?
Its viability, T/C is 90.7%.

And the viability, T/C [10]?
Its viability, T/C is 83.1%.

And the viability, T/C [11]?
Its viability, T/C is 71.5%.

And the viability, T/C [12]?
Its viability, T/C is 66.5%.

What about the viability, T/C [13] of the same compound?
The viability, T/C was 74%.

And the viability, T/C [14]?
Its viability, T/C is 85.1%.

What about the viability, T/C [15] of the same compound?
The viability, T/C was 74.5%.

What about the viability, T/C [16] of the same compound?
The viability, T/C was 76.1%.

And the viability, T/C [17]?
The viability, T/C was 81.4%.

What about the viability, T/C [18] of the same compound?
The viability, T/C was 68.5%.

And the viability, T/C [19]?
The viability, T/C was 63.4%.

What about the viability, T/C [20] of the same compound?
Its viability, T/C is 69.3%.

And the viability, T/C [21]?
The viability, T/C was 70.8%.

What about the viability, T/C [22] of the same compound?
The viability, T/C was 61.2%.

What about the viability, T/C [23] of the same compound?
The viability, T/C was 62.4%.

What about the viability, T/C [24] of the same compound?
The viability, T/C was 58.2%.

What about the viability, T/C [25] of the same compound?
Its viability, T/C is 30.2%.

What about the viability, T/C [26] of the same compound?
The viability, T/C was 32.3%.

And the viability, T/C [27]?
The viability, T/C was 30.2%.

What about the viability, T/C [28] of the same compound?
The viability, T/C was 32.9%.

And the viability, T/C [29]?
Its viability, T/C is 34.5%.

And the viability, T/C [30]?
Its viability, T/C is 29.4%.

What about the viability, T/C [31] of the same compound?
The viability, T/C was 11.5%.

What about the viability, T/C [32] of the same compound?
The viability, T/C was 10.8%.

What about the viability, T/C [33] of the same compound?
Its viability, T/C is 8.16%.

And the viability, T/C [34]?
The viability, T/C was 12.7%.

And the viability, T/C [35]?
The viability, T/C was 9.19%.

What about the viability, T/C [36] of the same compound?
The viability, T/C was 10.1%.

And the viability, T/C [37]?
The viability, T/C was 4.1%.

What about the viability, T/C [38] of the same compound?
The viability, T/C was 4.74%.

What about the viability, T/C [39] of the same compound?
Its viability, T/C is 4.6%.

What about the viability, T/C [40] of the same compound?
Its viability, T/C is 4.66%.

What about the viability, T/C [41] of the same compound?
The viability, T/C was 5.91%.

What about the viability, T/C [42] of the same compound?
Its viability, T/C is 4.28%.

For `CC(Cn1ccc(-c2ccc(C#N)c(Cl)c2)n1)NC(=O)c1cc(C(C)O)[nH]n1` (stereo unspecified) + CC(Nc1ccc2c(c1)OCCn1cc(N3C(=O)OCC3C(F)F)nc1-2)C(N)=O, which IC50 [1] is on record?
The IC50 was over 10 µM.

And the IC50 [2]?
The IC50 was over 10 µM.

And the IC50 [3]?
The IC50 was over 10 µM.

And the IC50 [4]?
The IC50 was over 10 µM.

What about the IC50 [5] of the same compound?
Its IC50 is 1.67 µM.

What about the IC50 [6] of the same compound?
Its IC50 is under 0.0316 µM.

What about the viability, T/C [7] of the same compound?
Its viability, T/C is 106%.

What about the viability, T/C [8] of the same compound?
Its viability, T/C is 88%.

And the viability, T/C [9]?
The viability, T/C was 115%.

And the viability, T/C [10]?
The viability, T/C was 86.7%.

And the viability, T/C [11]?
The viability, T/C was 99%.

And the viability, T/C [12]?
The viability, T/C was 86%.

What about the viability, T/C [13] of the same compound?
Its viability, T/C is 105%.

And the viability, T/C [14]?
The viability, T/C was 82.4%.

And the viability, T/C [15]?
The viability, T/C was 107%.

What about the viability, T/C [16] of the same compound?
Its viability, T/C is 99.9%.

What about the viability, T/C [17] of the same compound?
Its viability, T/C is 88.4%.

And the viability, T/C [18]?
The viability, T/C was 79.6%.

And the viability, T/C [19]?
The viability, T/C was 83.3%.

What about the viability, T/C [20] of the same compound?
The viability, T/C was 83.7%.

And the viability, T/C [21]?
The viability, T/C was 82%.

What about the viability, T/C [22] of the same compound?
The viability, T/C was 85%.

What about the viability, T/C [23] of the same compound?
The viability, T/C was 97.8%.

And the viability, T/C [24]?
The viability, T/C was 70.3%.

And the viability, T/C [25]?
The viability, T/C was 67.1%.

And the viability, T/C [26]?
The viability, T/C was 71.9%.

What about the viability, T/C [27] of the same compound?
The viability, T/C was 75.6%.

What about the viability, T/C [28] of the same compound?
The viability, T/C was 71.8%.

What about the viability, T/C [29] of the same compound?
The viability, T/C was 66.4%.

And the viability, T/C [30]?
The viability, T/C was 63.4%.

And the viability, T/C [31]?
Its viability, T/C is 53.4%.

And the viability, T/C [32]?
Its viability, T/C is 51.3%.

What about the viability, T/C [33] of the same compound?
The viability, T/C was 59.7%.

And the viability, T/C [34]?
Its viability, T/C is 49.6%.

And the viability, T/C [35]?
The viability, T/C was 46.1%.

What about the viability, T/C [36] of the same compound?
The viability, T/C was 44.7%.

What about the viability, T/C [37] of the same compound?
Its viability, T/C is 35.6%.

What about the viability, T/C [38] of the same compound?
Its viability, T/C is 40.9%.

What about the viability, T/C [39] of the same compound?
Its viability, T/C is 36.1%.

And the viability, T/C [40]?
The viability, T/C was 36.2%.

What about the viability, T/C [41] of the same compound?
Its viability, T/C is 33.6%.

What about the viability, T/C [42] of the same compound?
The viability, T/C was 28.9%.

How did the viability, T/C (compound 0.000316 µM) turn out when `CC(=O)c1c(C)c2cnc(Nc3ccc(N4CCNCC4)cn3)nc2n(C2CCCC2)c1=O` was run?
The viability, T/C was 105% (2×) and 96.8% and 106%.

And the viability, T/C (compound 0.001 µM)?
The viability, T/C was 90.8% [middle of 4 runs].

What about the viability, T/C (compound 0.00316 µM) of the same compound?
Its viability, T/C is 115% [middle of 4 runs].

And the viability, T/C (compound 0.01 µM)?
The viability, T/C was 100% (2×) and 98.9% and 98.4%.

What about the viability, T/C (compound 0.0316 µM) of the same compound?
The viability, T/C was 99% [middle of 4 runs].

And the viability, T/C (compound 0.1 µM)?
The viability, T/C was 83.8% [middle of 4 runs].

And the IC50 (curve of compound)?
Its IC50 is over 0.1 µM.
